The structures appear in SMILES notation. Some results are limits rather than exact numbers.

T2 sequence (Q9H2K2 873-1166): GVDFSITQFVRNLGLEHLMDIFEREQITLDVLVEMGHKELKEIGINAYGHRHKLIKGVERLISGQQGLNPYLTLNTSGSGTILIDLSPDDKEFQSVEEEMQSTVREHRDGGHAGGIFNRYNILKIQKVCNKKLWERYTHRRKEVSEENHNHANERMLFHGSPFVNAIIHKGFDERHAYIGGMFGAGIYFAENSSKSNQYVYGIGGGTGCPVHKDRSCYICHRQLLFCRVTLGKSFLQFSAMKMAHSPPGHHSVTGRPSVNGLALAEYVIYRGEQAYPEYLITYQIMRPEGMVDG

In the first assay the target is T1, GST-tagged Tnks-2 (873-1166 aa) (Homo sapiens, UniProt Q9H2K2).
T1 construct: GST-tagged Tnks-2 (873-1166 aa, prepared in-house); made in house
T1 sequence (Q9H2K2 873-1166): as above
The assay can be described thus: TNKS2 activity ELISA (autoparsylation assay).
Settings: not given
In kind it is biochemical. The procedure:
(§1) Description of the TNKS1 and TNKS2 ELISA Assay
(§2) Biochemical Activity Testing of TNKS 1 and 2: Activity ELISA (Autoparsylation Assay)
(§3) For analysis of autoparsylation activity of TNKS 1 and 2 an activity ELISA is performed: In the first step GST tagged TNKS is captured on a Glutathione coated plate. Then the activity assay with biotinylated NAD is performed in the absence/presence of the compounds. During the enzymatic reaction GST tagged TNKS transfers biotinylated ADP-ribose to itself from biotinylated NAD as co-substrate. For the detection streptavidin-HRP conjugate is added that binds to the biotinylated TNKS and is thereby captured to the plates. The amount of biotinylated resp. autoparsylated TNKS is detected with a luminescence substrate for HRP. The level of the luminescence signal correlates directly with the amount of autoparsylated TNKS and therefore with activity of TNKS.
(§4) The activity ELISA is performed in 384 well Glutathione coated microtiter plates (Express capture Glutathione coated plate, Biocat, Heidelberg, Germany). The plates are pre-equilibrated with PBS. Then the plates are incubated with 50 μl 20 ng/well GST-tagged Tnks-1 (1023-1327 aa, prepared in-house), respectively GST-tagged Tnks-2 (873-1166 aa, prepared in-house) in assay buffer (50 mM HEPES, 4 mM Mg-chloride, 0.05% Pluronic F-68, 2 mM DTT, pH 7.7) overnight at 4° C. The plates are washed 3 times with PBS-Tween-20. The wells are blocked by incubation at room temperature for 20 minutes with 50 μl blocking buffer (PBS, 0.05% Tween-20, 0.5% BSA). Afterwards the plates are washed 3 times with PBS-Tween-20. The enzymatic reaction is performed in 50 μl reaction solution (50 mM HEPES, 4 mM Mg-chloride, 0.05% Pluronic F-68, 1.4 mM DTT, 0.5% DMSO, pH 7.7) with 10 μM bio-NAD (Biolog, Life science Inst., Bremen, Germany) as co-substrate in the absence or presence of the test compound (10 dilution concentrations) for 1 hour at 30° C. The reaction is stopped by 3 times washing with PBS-Tween-20. For the detection 50 μl of 20 ng/μl Streptavidin, HRP conjugate (MoBiTec, Göttingen, Germany) in PBS/0.05% Tween-20/0.01% BSA are added and the plates are incubated for 30 minutes at room temperature. After three times washing with PBS-Tween-20 50 μl of SuperSignal ELISA Femto Maximum sensitivity substrate solution (ThermoFisherScientific (Pierce), Bonn, Germany) are added. Following a 1 minute incubation at room temperature luminescence signals are measured with an Envision multimode reader (Perkin Elmer LAS Germany GmbH) at 700 nm. The full value used is the inhibitor-free reaction. The pharmacological zero value used is XAV-939 (Tocris) in a final concentration of 5 μM. The inhibitory values (IC50) are determined using either the program Symyx Assay Explorer® or Condosseo® from GeneData.
For orientation: In an ELISA, binding on a coated surface is turned into a signal by an enzyme label.
In turn, `Cc1ccc(-c2cn3cncc3c(=O)[nH]2)cc1` [Compound A1, 6-p-tolyl-7H-imidazo[1,5-a]pyrazin-8-one] yielded an IC50 of 300 to 3000 nM.

As to `CC(C)(C)c1ccc(-c2cn3cncc3c(=O)[nH]2)cc1` [Compound A2, 6-(4-tert-Butyl-phenyl)-7H-imidazo[1,5-a]pyrazin-8-one], the IC50 is below 300 nM.

In the case of `O=c1[nH]c(-c2ccc(C(F)(F)F)cc2)cn2cncc12` [Compound A3, 6-(4-Trifluoromethyl-phenyl)-7H-imidazo[1,5-a]pyrazin-8-one], the concentration for half-maximal inhibition (IC50) is below 300 nM.

Turning to `Cn1cc(-c2ccc(-c3cn4cncc4c(=O)[nH]3)cc2)cn1` [Compound A4, 6-[4-(1-methyl-1H-pyrazol-4-yl)-phenyl]-7H-imidazo[1,5-a]pyrazin-8-one], the IC50 was below 300 nM.

The next assay addresses T2, GST-tagged Tankyrase-2 (873-1166 aa) (Homo sapiens, UniProt Q9H2K2).
T2 construct: GST-tagged Tankyrase-2 (873-1166 aa)
The assay can be described thus: Tankyrase 2 autoparsylation assay (HTRF). The settings on record: read-out: IC50 TNKS2 enzyme assay. The format is biochemical. On the procedure: (§5) Biochemical activity testing of Tankyrase 1 and 2: Autoparsylation assay
(§6) The autoparsylation assay is run in two steps: the enzymatic reaction in which GST-tagged Tankyrase-1, resp Tankyrase-2 transferred biotinylated ADP-ribose to itself from biotinylated NAD as co-substrate and the detection reaction where a time resolved FRET between cryptate labelled anti-GST bound to the GST tag of the enzyme and Xlent® labelled-streptavidin bound the biotin-parsylation residue is analysed. The autoparsylation activity was detectable directly via the increase in HTRF signal.
(§7) The autoparsylation assay is performed as 384-well HTRF® (Cisbio, Codolet, France) assay format in Greiner low volume nb 384-well microtiter plates and is used for high throughput screen. 250 nM GST-tagged Tankyrase-1 (1023-1327 aa), respectively about 250 nM GST-tagged Tankyrase-2 (873-1166 aa) and 5 μM bio-NAD (Biolog, Life science Inst., Bremen, Germany) as co-substrate are incubated in a total volume of 5 μl (50 mM HEPES, 4 mM Mg-chloride, 0.05% Pluronic F-68, 1.4 mM DTT, 0.5% DMSO, pH 7.7) in the absence or presence of the test compound (10 dilution concentrations) for 90 min at 30° C. The reaction is stopped by the addition of 1 μl 50 mM EDTA solution. 2 μl of the detection solution (1.6 μM SA-Xlent® (Cisbio, Codolet, France), 7.4 nM Anti-GST-K® (Eu-labelled anti-GST, Cisbio, Codolet, France) in 50 mM HEPES, 800 mM KF, 0.1% BSA, 20 mM EDTA, 0.1% CHAPS, pH 7.0) are added. After 1 h incubation at room temperature the HTRF is measured with an Envision multimode reader (Perkin Elmer LAS Germany GmbH) at excitation wavelength 340 nm (laser mode) and emission wavelengths 615 nm and 665 nm. The ratio of the emission signals is determined. The full value used is the inhibitor-free reaction. The pharmacological zero value used is XAV-939 (Tocris) in a final concentration of 5 μM. The inhibitory values (IC50) are determined using either the program Symyx Assay Explorer® or Condosseo® from GeneData.
For orientation: TR-FRET usually uses a lanthanide donor and a delayed reading to cut background.
Consider `Cc1ccc(-c2cn3cncc3c(=O)[nH]2)cc1` [Compound A1, 6-p-tolyl-7H-imidazo[1,5-a]pyrazin-8-one], for which the IC50 was 300 to 3000 nM.

With `CC(C)(C)c1ccc(-c2cn3cncc3c(=O)[nH]2)cc1` [Compound A2, 6-(4-tert-Butyl-phenyl)-7H-imidazo[1,5-a]pyrazin-8-one], the IC50 is 300 to 3000 nM.

With `O=c1[nH]c(-c2ccc(C(F)(F)F)cc2)cn2cncc12` [Compound A3, 6-(4-Trifluoromethyl-phenyl)-7H-imidazo[1,5-a]pyrazin-8-one], the IC50 was 300 to 3000 nM.

Consider `Cn1cc(-c2ccc(-c3cn4cncc4c(=O)[nH]3)cc2)cn1` [Compound A4, 6-[4-(1-methyl-1H-pyrazol-4-yl)-phenyl]-7H-imidazo[1,5-a]pyrazin-8-one], for which the IC50 is 300 to 3000 nM.

The test system of a further assay is Tankyrases. As to the kind of experiment: Cellular inhibition of Tankyrase, Axin2 level in DLD1 cells (Luminex). Conditions: Axin2 increase, 24 hours, read-out: EC50 [M] TNKS cellular assay. In kind it is cell-based. On the procedure:
Measurement of Cellular Inhibition of Tankyrase
Since Tankyrases have been described to modulate cellular level of Axin2 (Huang et al., 2009; Nature) the increase of Axin2 level is used as read-out for determination of cellular inhibition of Tankyrases in a Luminex based assay.
Cells of the colon carcinoma cell line DLD1 are plated in 96 well plates with 1.5×10^4 cells per well. Next day, cells are treated with a serial dilution of test compound in seven steps as triplicates with a final DMSO concentration of 0.3%. After 24 hours, cells are lysed in lysis buffer (20 mM Tris/HCl pH 8.0, 150 mM NaCl, 1% NP40, 10% Glycerol) and lysates are cleared by centrifugation through a 96 well filter plate (0.65 μm). Axin2 protein is isolated from cell lysates by incubation with a monoclonal anti-Axin2 antibody (R&D Systems #MAB6078) that is bound to fluorescent carboxybeads. Then, bound Axin2 is specifically detected with a polyclonal anti-Axin2 antibody (Cell Signaling #2151) and an appropriate PE-fluorescent secondary antibody. The amount of isolated Axin2 protein is determined in a Luminex^200 machine (Luminex Corporation) according to the manufacturer's instruction by counting 100 events per well. Inhibition of Tankyrase by test compounds results in higher levels of Axin2 which directly correlates with an increase of detectable fluorescence. As controls cells are treated with solvent alone (neutral control) and with a Tankyrase reference inhibitor IWR-2 (3E-06 M) which refers as control for maximum increase of Axin2. For analysis, the obtained data are normalized against the untreated solvent control and fitted for determination of the EC50 values using the Assay Explorer software (Accelrys).
Consider `CC(C)(C)c1ccc(-c2cn3cncc3c(=O)[nH]2)cc1` [Compound A2, 6-(4-tert-Butyl-phenyl)-7H-imidazo[1,5-a]pyrazin-8-one], for which the concentration for a half-maximal effect (EC50) lay within 3e-07 to 3e-06 M.

In a further assay the target is T3, GST-tagged Tnks-1 (1023-1327 aa) (Homo sapiens, UniProt O95271).
T3 construct: GST-tagged Tnks-1 (1023-1327 aa, prepared in-house); made in house
T3 sequence (O95271 1023-1327): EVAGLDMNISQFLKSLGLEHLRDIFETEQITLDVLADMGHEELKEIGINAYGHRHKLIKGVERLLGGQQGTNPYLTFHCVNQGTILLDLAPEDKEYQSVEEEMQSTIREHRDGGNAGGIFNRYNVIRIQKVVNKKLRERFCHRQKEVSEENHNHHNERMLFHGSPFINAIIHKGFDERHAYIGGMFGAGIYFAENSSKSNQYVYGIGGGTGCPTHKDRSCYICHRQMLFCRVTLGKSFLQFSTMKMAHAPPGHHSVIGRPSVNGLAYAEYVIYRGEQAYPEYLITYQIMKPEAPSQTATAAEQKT
As to the kind of experiment: TNKS1 activity ELISA (autoparsylation assay). In kind it is biochemical.
Settings: not given
On the procedure: as §1, §2, §3, §4
The compound `Cc1ccc(-c2cn3cncc3c(=O)[nH]2)cc1` [Compound A1, 6-p-tolyl-7H-imidazo[1,5-a]pyrazin-8-one] returned an IC50 of 300 to 3000 nM.

Consider `CC(C)(C)c1ccc(-c2cn3cncc3c(=O)[nH]2)cc1` [Compound A2, 6-(4-tert-Butyl-phenyl)-7H-imidazo[1,5-a]pyrazin-8-one], for which the 50% inhibitory concentration (IC50) was below 300 nM.

`O=c1[nH]c(-c2ccc(C(F)(F)F)cc2)cn2cncc12` [Compound A3, 6-(4-Trifluoromethyl-phenyl)-7H-imidazo[1,5-a]pyrazin-8-one] showed an IC50 below 300 nM.

Compound `Cn1cc(-c2ccc(-c3cn4cncc4c(=O)[nH]3)cc2)cn1` [Compound A4, 6-[4-(1-methyl-1H-pyrazol-4-yl)-phenyl]-7H-imidazo[1,5-a]pyrazin-8-one] registered an IC50 below 300 nM.

The target in another assay is T4, His-tagged Parp-1 (Homo sapiens, UniProt P09874).
T4 construct: purchased Enzo Life Sciences GmbH, Lörrach, Germany
T4 sequence (P09874 whole entry): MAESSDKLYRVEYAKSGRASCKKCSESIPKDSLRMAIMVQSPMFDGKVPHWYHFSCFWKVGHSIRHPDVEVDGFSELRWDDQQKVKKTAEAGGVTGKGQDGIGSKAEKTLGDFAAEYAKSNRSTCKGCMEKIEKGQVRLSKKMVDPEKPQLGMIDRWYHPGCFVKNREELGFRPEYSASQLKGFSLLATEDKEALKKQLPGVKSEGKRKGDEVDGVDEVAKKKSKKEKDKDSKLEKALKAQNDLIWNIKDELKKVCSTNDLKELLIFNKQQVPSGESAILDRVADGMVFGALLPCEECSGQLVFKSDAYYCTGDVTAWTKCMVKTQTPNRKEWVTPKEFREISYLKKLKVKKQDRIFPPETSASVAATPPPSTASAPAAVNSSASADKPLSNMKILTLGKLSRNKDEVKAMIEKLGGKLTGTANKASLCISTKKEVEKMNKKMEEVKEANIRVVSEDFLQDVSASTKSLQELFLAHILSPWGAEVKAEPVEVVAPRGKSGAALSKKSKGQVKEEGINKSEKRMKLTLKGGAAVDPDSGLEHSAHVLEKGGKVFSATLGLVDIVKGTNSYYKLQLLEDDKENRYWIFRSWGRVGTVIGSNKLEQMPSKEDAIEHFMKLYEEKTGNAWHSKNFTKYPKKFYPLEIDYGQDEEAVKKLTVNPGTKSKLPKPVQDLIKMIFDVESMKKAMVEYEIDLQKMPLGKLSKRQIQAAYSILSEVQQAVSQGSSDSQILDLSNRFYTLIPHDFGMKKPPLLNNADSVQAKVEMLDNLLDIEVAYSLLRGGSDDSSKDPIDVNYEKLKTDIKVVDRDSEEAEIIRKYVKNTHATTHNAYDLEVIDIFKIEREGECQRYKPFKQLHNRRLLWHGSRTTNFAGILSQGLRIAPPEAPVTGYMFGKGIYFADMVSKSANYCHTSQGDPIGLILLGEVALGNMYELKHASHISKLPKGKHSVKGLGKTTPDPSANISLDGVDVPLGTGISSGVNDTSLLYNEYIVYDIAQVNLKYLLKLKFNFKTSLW
As to the kind of experiment: PARP-1 autoparsylation assay (HTRF). In kind it is biochemical. Conditions: PARP-1 autoparsylation HTRF. From the text:
Description of the PARP1 Assay
Biochemical Activity Testing of PARP-1: Autoparsylation Assay
The autoparsylation assay is run in two steps: the enzymatic reaction in which His-tagged Parp-1 transfers biotinylated ADP-ribose/ADP-ribose to itself from biotinylated NAD/NAD as co-substrate and the detection reaction where a time resolved FRET between cryptate labelled anti-His antibody bound to the His tag of the enzyme and Xlent® labelled-streptavidin bound the biotin-parsylation residue is analysed. The autoparsylation activity is detectable directly via the increase in HTRF signal.
The autoparsylation assay is performed as 384-well HTRF® (Cisbio, Codolet, France) assay format in Greiner low volume nb 384-well microtiter plates. 35 nM His-tagged Parp-1 (human, recombinant, Enzo Life Sciences GmbH, Lörrach, Germany) and a mixture of 125 nM bio-NAD (Biolog, Life science Inst., Bremen, Germany) and 800 nM NAD as co-substrate are incubated in a total volume of 6 μl (100 mM Tris/HCl, 4 mM Mg-chloride, 0.01% IGEPAL® CA630, 1 mM DTT, 0.5% DMSO, pH 8, 13 ng/μl activated DNA (BPS Bioscience, San Diego, US)) in the absence or presence of the test compound (10 dilution concentrations) for 150 min at 23° C. The reaction is stopped by the addition of 4 μl of the Stop/detection solution (70 nM SA-Xlent® (Cisbio, Codolet, France), 2.5 nM Anti-His-K® (Eu-labelled anti-His, Cisbio, Codolet, France) in 50 mM HEPES, 400 mM KF, 0.1% BSA, 20 mM EDTA, pH 7.0). After 1 h incubation at room temperature the HTRF is measured with an Envision multimode reader (Perkin Elmer LAS Germany GmbH) at excitation wavelength 340 nm (laser mode) and emission wavelengths 615 nm and 665 nm. The ratio of the emission signals is determined. The full value used is the inhibitor-free reaction. The pharmacological zero value used is Olaparib (LClabs, Woburn, US) in a final concentration of 1 μM. The inhibitory values (IC50) are determined using either the program Symyx Assay Explorer® or Condosseo® from GeneData.
In turn, `Cc1ccc(-c2cn3cncc3c(=O)[nH]2)cc1` [Compound A1, 6-p-tolyl-7H-imidazo[1,5-a]pyrazin-8-one] registered an IC50 of 3000 to 50000 nM.

Take `CC(C)(C)c1ccc(-c2cn3cncc3c(=O)[nH]2)cc1` [Compound A2, 6-(4-tert-Butyl-phenyl)-7H-imidazo[1,5-a]pyrazin-8-one]: the IC50 was in the range of 3000 to 50000 nM.

The target in a further assay is T5, GST-tagged Tankyrase-1 (1023-1327 aa) (Homo sapiens, UniProt O95271).
T5 construct: GST-tagged Tankyrase-1 (1023-1327 aa)
T5 sequence (O95271 1023-1327): as the sequence (O95271 1023-1327) above
The assay can be described thus: Tankyrase 1 autoparsylation assay (HTRF). The format is biochemical. The settings on record: read-out: IC50 TNKS1 enzyme assay. The procedure: as §5, §6, §7
As to `Cc1ccc(-c2cn3cncc3c(=O)[nH]2)cc1` [Compound A1, 6-p-tolyl-7H-imidazo[1,5-a]pyrazin-8-one], the IC50 fell in the range of 300 to 3000 nM.

On to `CC(C)(C)c1ccc(-c2cn3cncc3c(=O)[nH]2)cc1` [Compound A2, 6-(4-tert-Butyl-phenyl)-7H-imidazo[1,5-a]pyrazin-8-one], for which the IC50 is below 300 nM.

As to `O=c1[nH]c(-c2ccc(C(F)(F)F)cc2)cn2cncc12` [Compound A3, 6-(4-Trifluoromethyl-phenyl)-7H-imidazo[1,5-a]pyrazin-8-one], the IC50 lay in the range of 300 to 3000 nM.

In the case of `Cn1cc(-c2ccc(-c3cn4cncc4c(=O)[nH]3)cc2)cn1` [Compound A4, 6-[4-(1-methyl-1H-pyrazol-4-yl)-phenyl]-7H-imidazo[1,5-a]pyrazin-8-one], the IC50 was 300 to 3000 nM.

The IC50 is the concentration needed to halve the response being measured. As usually defined, the EC50 is the concentration that produces a half-maximal response.

The values are drawn from patent publication US9718826B2, “Imidazopyrazinone derivatives” (Merck Patent GmbH, priority 2013, dated 2017).
